Measurements as given in PubChem BioAssay AID743428 (The Scripps Research Institute Molecular Screening Center, 2014).
Activity calls are given as the source filed them. No rule for the calls is given here.

target: Sphingosine 1-phosphate receptor 2 (Homo sapiens) (UniProt O95136); experiment: S1P2 receptor antagonists, late-stage follow-up, counter-screen for S1PR3 antagonist project, cell-based, FRET, dose response (AID 743428); details: S1P2-expressing cells, FRET reporter, antagonist counterscreen
Sequence (O95136 whole entry, looked up): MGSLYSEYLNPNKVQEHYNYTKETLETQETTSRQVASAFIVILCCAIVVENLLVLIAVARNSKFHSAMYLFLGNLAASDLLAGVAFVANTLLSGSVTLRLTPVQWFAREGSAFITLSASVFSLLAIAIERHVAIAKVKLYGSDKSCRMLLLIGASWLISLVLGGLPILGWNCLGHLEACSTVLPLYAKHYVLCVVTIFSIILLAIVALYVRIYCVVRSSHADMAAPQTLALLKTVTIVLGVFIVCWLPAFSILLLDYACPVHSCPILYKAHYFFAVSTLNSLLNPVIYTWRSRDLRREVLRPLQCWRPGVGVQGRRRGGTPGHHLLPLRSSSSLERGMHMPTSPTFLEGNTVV

IC50 | SMILES
> 50 µM (inactive) | O=C(NC(c1ccccc1)c1nc(-c2ccccc2)no1)c1cccc(Cl)c1 (configuration not stated)
> 50 µM (inactive) | O=C(NC(c1cccc(Cl)c1)c1nc(-c2ccccc2)no1)c1ccc(Cl)c(Cl)c1 (configuration not stated)
> 50 µM (inactive) | O=C(NC(c1ccc(Cl)cc1)c1nc(-c2ccccc2)no1)c1ccc(Cl)c(Cl)c1 (configuration not stated)
inactive | O=C(NC(Cc1ccccc1)c1nc(-c2ccccc2)no1)c1cccc(Cl)c1 (configuration not stated)
> 50 µM (inactive) | O=C(NC(c1ccccc1)c1nc(-c2ccccc2)no1)c1cccc(Br)c1 (configuration not stated)
> 50 µM (inactive) | O=C(NC(c1ccc(Cl)c(Cl)c1)c1nc(-c2ccccc2)no1)c1ccccc1 (configuration not stated)
> 50 µM (inactive) | O=C(NC(c1ccc(Cl)cc1)c1nc(-c2cccc(Cl)c2)no1)c1cccc(Cl)c1 (configuration not stated)
> 50 µM (inactive) | O=C(NC(c1ccc(Cl)cc1)c1nc(-c2ccccc2)no1)c1cccc(Br)c1 (configuration not stated)
> 50 µM (inactive) | O=C(NC(c1nc(-c2ccccc2)no1)C1CCOCC1)c1ccc(Cl)c(Cl)c1 (configuration not stated)
> 50 µM (inactive) | O=C(NC(c1nc(-c2ccccc2)no1)C1CCCCC1)c1ccc(Cl)c(Cl)c1 (configuration not stated)
> 50 µM (inactive) | O=C(NC(c1cccc(Cl)c1)c1nc(-c2ccccc2)no1)c1cccc(Cl)c1 (configuration not stated)
> 50 µM (inactive) | O=C(NC(c1ccccc1)c1nc(-c2ccccc2)no1)c1cccc(Cl)n1 (configuration not stated)
inactive | O=C(c1cccc(Cl)c1)N(CCO)C(c1ccc(Cl)c(Cl)c1)c1nc(-c2ccccc2)no1 (configuration not stated)
> 50 µM (inactive) | O=C(NC(c1ccc(Cl)cc1)c1nc(-c2ccccc2)no1)c1cccc(Cl)c1 (configuration not stated)
> 50 µM (inactive) | O=C(NC(c1ccc(Cl)cc1)c1nc(-c2ccccc2)no1)c1ccc(Cl)c(Br)c1 (configuration not stated)
> 50 µM (inactive) | Cc1ccc(C(NC(=O)c2cccc(Cl)c2)c2nc(-c3ccccc3)no2)cc1 (configuration not stated)
> 50 µM (inactive) | COc1ccc(C(=O)NC(c2ccccc2)c2nc(-c3ccccc3)no2)cc1 (configuration not stated)
> 50 µM (inactive) | O=C(NC(c1ccc(Cl)c(Cl)c1)c1nc(-c2ccccc2)no1)c1ccc(Cl)cc1 (configuration not stated)
> 50 µM (inactive) | N#Cc1ccc(C(=O)NC(c2ccc(Cl)c(Cl)c2)c2nc(-c3ccccc3)no2)cc1 (configuration not stated)
> 50 µM (inactive) | Cc1ccc(C(=O)NC(c2ccccc2)c2nc(-c3ccccc3)no2)cc1 (configuration not stated)
> 50 µM (inactive) | O=C(NC(c1ccc(Br)cc1)c1nc(-c2ccccc2)no1)c1ccc(Cl)c(Cl)c1 (configuration not stated)
> 50 µM (inactive) | O=C(NC(c1ccc(Cl)cc1)c1nc(-c2ccccn2)no1)c1cccc(Cl)c1 (configuration not stated)
> 50 µM (inactive) | O=C(NC(c1ccc(Cl)c(Cl)c1)c1nc(-c2ccccc2)no1)c1cccc(Cl)c1 (configuration not stated)
> 50 µM (inactive) | O=C(NC(c1ccccc1)c1nc(-c2ccccc2)no1)c1ccc(Cl)cc1 (configuration not stated)
> 50 µM (inactive) | O=C(NC(c1ccc(Cl)c(Cl)c1)c1nc(-c2ccccc2)no1)c1ccc(Cl)c(Cl)c1 (configuration not stated)
> 50 µM (inactive) | CCc1ccc(C(NC(=O)c2cccc(Cl)c2)c2nc(-c3ccccc3)no2)cc1 (configuration not stated)
> 50 µM (inactive) | O=C(NC(c1cccc(Cl)c1)c1nc(-c2ccccc2)no1)c1cc(Cl)cc(Cl)c1 (configuration not stated)
